According to BindingDB's records for doi:10.7270/Q21G0K51 (University of Carthage, 2017):
pIC50: −log10 of the molar value.

Columns and labels:
[1] = target: Carboxylic ester hydrolase (Equus caballus, UniProt Q9N1N9); experiment: Cholinesterase Activity Assay
Experimental: (§1) The eight synthesized dialkyl-3-cyanopropylphosphates (3a-h) were dissolved in0.01 M dimethyl sulphoxide and then diluted in demineralized water to 1 mM and 0.1 mM.

[2] = target: Acetylcholinesterase (Electrophorus electricus, UniProt O42275); experiment: Cholinesterase Activity Assay
Chain of Acetylcholinesterase (O42275 whole entry): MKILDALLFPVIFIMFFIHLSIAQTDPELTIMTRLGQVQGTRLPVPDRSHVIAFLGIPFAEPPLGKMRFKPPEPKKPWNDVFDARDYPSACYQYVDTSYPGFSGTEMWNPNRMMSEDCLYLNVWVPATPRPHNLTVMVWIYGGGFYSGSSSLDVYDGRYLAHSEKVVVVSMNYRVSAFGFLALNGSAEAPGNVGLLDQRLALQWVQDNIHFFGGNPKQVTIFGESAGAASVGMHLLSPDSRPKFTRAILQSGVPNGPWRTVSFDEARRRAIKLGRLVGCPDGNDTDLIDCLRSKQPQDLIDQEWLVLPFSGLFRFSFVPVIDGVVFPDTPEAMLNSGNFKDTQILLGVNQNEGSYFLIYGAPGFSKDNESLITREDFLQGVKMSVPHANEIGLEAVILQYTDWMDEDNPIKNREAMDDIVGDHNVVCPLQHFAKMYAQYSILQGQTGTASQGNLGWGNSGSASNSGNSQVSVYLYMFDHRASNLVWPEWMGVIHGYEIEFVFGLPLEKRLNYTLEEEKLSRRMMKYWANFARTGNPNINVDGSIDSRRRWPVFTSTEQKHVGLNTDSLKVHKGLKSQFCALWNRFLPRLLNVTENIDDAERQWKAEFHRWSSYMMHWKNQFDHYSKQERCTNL
Experimental: as §1

Chain of Carboxylic ester hydrolase (Q9N1N9 whole entry): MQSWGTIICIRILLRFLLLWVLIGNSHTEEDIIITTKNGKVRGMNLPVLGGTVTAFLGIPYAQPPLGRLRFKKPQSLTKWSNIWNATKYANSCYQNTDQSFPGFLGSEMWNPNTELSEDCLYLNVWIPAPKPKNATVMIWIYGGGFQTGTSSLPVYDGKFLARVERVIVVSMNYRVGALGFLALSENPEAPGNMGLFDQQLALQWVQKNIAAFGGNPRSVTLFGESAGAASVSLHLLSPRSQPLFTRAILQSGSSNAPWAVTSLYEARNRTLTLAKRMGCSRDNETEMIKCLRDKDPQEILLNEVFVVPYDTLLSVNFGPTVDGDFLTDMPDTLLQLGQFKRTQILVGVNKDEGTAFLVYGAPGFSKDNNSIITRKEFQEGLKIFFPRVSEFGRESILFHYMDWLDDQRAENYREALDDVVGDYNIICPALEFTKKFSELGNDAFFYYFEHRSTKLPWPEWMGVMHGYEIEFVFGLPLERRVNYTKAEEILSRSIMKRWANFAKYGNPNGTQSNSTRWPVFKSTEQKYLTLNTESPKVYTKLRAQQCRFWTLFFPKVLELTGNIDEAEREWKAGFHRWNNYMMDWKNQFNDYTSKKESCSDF

| SMILES | pIC50 [1] | pIC50 [2] |
| --- | --- | --- |
| CCOP(=O)(OCC)OC(CCC#N)c1ccc(OC)cc1 (stereo unspecified) [Diethyl-3-cyano-1-(4-methoxyphenyl)propylphosphate (3e)] | 4.68 | 4.27 |
| CCOP(=O)(OCC)OC(CCC#N)c1ccc(C)cc1 (stereo unspecified) [Diethyl-3-cyano-1-p-tolylpropylphosphate (3c)] | 5.22 | 5.02 |
| CCOP(=O)(OCC)OC(CCC#N)c1ccccc1 (stereo unspecified) [Diethyl-3-cyano-1-phenylpropylphosphate (3a)] | 4.74 | 4.47 |
| CCOP(=O)(OCC)OC(c1ccccc1)C(C)CC#N (stereo unspecified) [Diethyl-3-cyano-2-methyl-1-phenylpropylphosphate (3g)] | 4.75 | 4.45 |
| COc1ccc(C(CCC#N)OP(=O)(OC)OC)cc1 (stereo unspecified) [Dimethyl-3-cyano-1-(4-methoxyphenyl)propylphosphate (3f)] | 4.63 | 4.43 |
| COP(=O)(OC)OC(CCC#N)c1ccc(C)cc1 (stereo unspecified) [Dimethyl-3-cyano-1-p-tolylpropylphosphate (3d)] | 4.80 | 4.76 |
| COP(=O)(OC)OC(CCC#N)c1ccccc1 (stereo unspecified) [Dimethyl-3-cyano-1-phenylpropylphosphate (3b)] | 4.72 | 4.50 |
| COP(=O)(OC)OC(c1ccccc1)C(C)CC#N (stereo unspecified) [Dimethyl-3-cyano-2-methyl-1-phenylpropylphosphate (3h)] | 4.69 | 4.53 |
